Results from PubChem BioAssay AID743302 (Broad Institute, 2014).
Values joined by “and” are separate entries in the source; they are usually repeats but may differ in a detail not shown here. Equal entries are not always repeated. Active and inactive are the calls of the source.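 How the source made its calls: active means fitted curve rises past activity 40 at a concentration no higher than the top valid tested dose; inconclusive means flat curve at 30 to 70 percent, or poor fit; inactive means the rest, including activity in the opposite direction.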

Test system: C. neoformans lysis, adenylate kinase release luminescence, 4 h
Assay: inducers of C. neoformans cell lysis, dose response, AK release luminescence, dry powder, set 3 (AID 743302)
Details: not given

Question: With `COCc1nc2ccccc2n1CCOc1ccc(C(C)(C)C)cc1` as the compound, how does the AC40 read?
Answer: 6790 nM

Question: Which AC40 does the source give for `Cc1ccc(C(C)C)c(OCCn2c(=S)[nH]c3c(C)cccc32)c1` here?
Answer: 1820 nM

Question: Which AC40 does the source give for `Cc1cccc(OCCn2c(=S)[nH]c3ccccc32)c1` here?
Answer: 910 nM

Question: Which AC40 does the source give for `Cc1ccc(C(C)C)c(OCCn2c(=S)[nH]c3ccc(F)cc32)c1` here?
Answer: 1060 nM

Question: With `Cc1cccc(OCCn2c(=S)[nH]c3cc(C(F)(F)F)ccc32)c1` as the compound, how does the AC40 read?
Answer: > 15000 nM (inactive)

Question: With `Cc1ccc(OCCn2cnc3ccccc32)c(C(C)C)c1` as the compound, how does the AC40 read?
Answer: 3820 nM

Question: With `S=c1[nH]c2cc(Cl)ccc2n1CCOc1ccccc1` as the compound, how does the AC40 read?
Answer: 358 nM

Question: With `Fc1cccc2c1[nH]c(=S)n2CCOc1ccccc1` as the compound, how does the AC40 read?
Answer: 3180 nM and 2700 nM and 1570 nM

Question: Which AC40 does the source give for `Cc1cccc(OCCn2c(=S)[nH]c3ccc(C(F)(F)F)cc32)c1` here?
Answer: 14300 nM

Question: Which AC40 does the source give for `O=c1[nH]c2ccccc2n1CCOc1ccccc1` here?
Answer: > 15000 nM (inactive)

Question: Which AC40 does the source give for `Cc1ccc(C(C)C)c(OCCn2c(=S)[nH]c3cc(F)ccc32)c1` here?
Answer: 5510 nM

Question: Which AC40 does the source give for `Cc1ccc(C(C)C)c(OCCn2c(=S)[nH]c3cccc(Cl)c32)c1` here?
Answer: > 15000 nM (inactive)

Question: Which AC40 does the source give for `Cc1ccccc1OCCn1c(=S)[nH]c2ccccc21` here?
Answer: 1870 nM

Question: Which AC40 does the source give for `CC(C)(C)c1ccccc1OCCn1c(=S)[nH]c2ccccc21` here?
Answer: 3230 nM

Question: Which AC40 does the source give for `Cc1ccc(OCCn2c(=S)[nH]c3ccccc32)c(C)c1` here?
Answer: > 15000 nM (inactive)

Question: With `S=c1[nH]c2ccccc2n1CCOc1ccc(Cl)cc1` as the compound, how does the AC40 read?
Answer: 1190 nM

Question: For `CCOc1ccc(OCCn2c(=S)[nH]c3ccccc32)cc1`, which AC40 is on record?
Answer: 1380 nM

Question: Which AC40 does the source give for `Cc1ccc(C(C)C)c(OCCn2c(CO)nc3ccccc32)c1` here?
Answer: 14000 nM

Question: Which AC40 does the source give for `Cc1ccc(C(C)C)c(OCCn2c(=S)[nH]c3ccc(Cl)cc32)c1` here?
Answer: > 15000 nM (inactive)

Question: With `Cc1ccc(C(C)C)c(OCCn2c(=S)[nH]c3ccccc32)c1` as the compound, how does the AC40 read?
Answer: 3570 nM and 2720 nM

Question: Which AC40 does the source give for `Fc1ccccc1OCCn1c(=S)[nH]c2ccccc21` here?
Answer: 8740 nM

Question: With `COc1cccc(OCCn2c(=S)[nH]c3ccccc32)c1` as the compound, how does the AC40 read?
Answer: > 15000 nM (inactive)

Question: For `Cc1ccc(OCCn2c(=S)[nH]c3ccccc32)c(C(C)C)c1`, which AC40 is on record?
Answer: 9540 nM and 1410 nM

Question: With `S=c1[nH]c2cccc(Cl)c2n1CCOc1ccccc1` as the compound, how does the AC40 read?
Answer: 3600 nM and 619 nM

Question: Which AC40 does the source give for `CC(C)c1ccccc1NCCn1c(=S)[nH]c2ccccc21` here?
Answer: 5860 nM

Question: Which AC40 does the source give for `Cc1cccc(OCCn2c(=S)[nH]c3c(F)cccc32)c1` here?
Answer: 726 nM and 1300 nM

Question: Which AC40 does the source give for `Cc1cccc(OCCn2c(=S)[nH]c3ccccc32)c1C` here?
Answer: > 15000 nM (inactive)

Question: With `Cc1ccc(OCCn2c(=S)[nH]c3ccccc32)cc1` as the compound, how does the AC40 read?
Answer: 1140 nM

Question: For `Cc1ccc(OCCn2c(C)nc3ccccc32)cc1`, which AC40 is on record?
Answer: > 15000 nM (inactive)

Question: With `Cc1ccc(OCCn2cnc3ccccc32)cc1` as the compound, how does the AC40 read?
Answer: > 15000 nM (inactive)

Question: Which AC40 does the source give for `Cc1ccc(C(C)C)c(OCCn2c(=S)[nH]c3cccc(F)c32)c1` here?
Answer: > 15000 nM (inactive)

Question: With `Cc1ccc(C(C)C)c(OCCn2c(=S)[nH]c3c(Cl)cccc32)c1` as the compound, how does the AC40 read?
Answer: > 15000 nM (inactive)

Question: For `Cc1ccc(C)c(OCCn2c(=S)[nH]c3ccccc32)c1`, which AC40 is on record?
Answer: 1820 nM

Question: Which AC40 does the source give for `COc1ccc(OCCn2c(=S)[nH]c3ccccc32)cc1` here?
Answer: 13700 nM

Question: Which AC40 does the source give for `Fc1ccc2[nH]c(=S)n(CCOc3ccccc3)c2c1` here?
Answer: > 15000 nM (inactive)

Question: Which AC40 does the source give for `Cc1ccc2c(c1)[nH]c(=S)n2CCOc1ccccc1` here?
Answer: 4240 nM and 940 nM

Question: For `Cc1ccc(C(C)C)c(OCCn2c(=S)[nH]c3cccc(C)c32)c1`, which AC40 is on record?
Answer: 8260 nM

Question: Which AC40 does the source give for `CC(C)c1ccc(OCCn2c(=S)[nH]c3ccccc32)cc1` here?
Answer: 172 nM

Question: Which AC40 does the source give for `Fc1cccc(OCCn2c(=S)[nH]c3ccccc32)c1` here?
Answer: 3270 nM

Question: With `c1ccc(OCCn2cnc3ccccc32)cc1` as the compound, how does the AC40 read?
Answer: > 15000 nM (inactive)

Question: For `Cc1ccc(OCCn2c(SCCO)nc3ccccc32)c(C(C)C)c1`, which AC40 is on record?
Answer: > 15000 nM (inactive)

Question: For `Cc1cccc2[nH]c(=S)n(CCOc3ccccc3)c12`, which AC40 is on record?
Answer: 211 nM

Question: With `Cc1cccc(OCCn2c(=S)[nH]c3cc(F)ccc32)c1` as the compound, how does the AC40 read?
Answer: 581 nM and 1820 nM

Question: With `CC(C)c1ccccc1OCCn1c(=S)[nH]c2ccccc21` as the compound, how does the AC40 read?
Answer: 1110 nM

Question: With `CC(C)(C)c1ccc(OCCn2cnc3ccccc32)cc1` as the compound, how does the AC40 read?
Answer: 1950 nM

Question: With `Fc1ccc2c(c1)[nH]c(=S)n2CCOc1ccccc1` as the compound, how does the AC40 read?
Answer: 3060 nM and 1950 nM

Question: With `S=c1[nH]c2ccccc2n1CCOc1ccccc1Cl` as the compound, how does the AC40 read?
Answer: 902 nM

Test system: not listed separately
Assay: as above
Details: C. neoformans lysis, adenylate kinase release luminescence, 4 h; at 15 µM (top of the series)

Question: For `COc1ccccc1OCCn1c(=S)[nH]c2ccccc21`, which cell lysis activity is on record?
Answer: -4.68% (inactive)

Question: Which cell lysis activity does the source give for `CC(C)(C)c1ccc(OCCn2c(=S)[nH]c3ccccc32)cc1` here?
Answer: 4.17% (inactive)

Question: For `S=c1[nH]c2ccccc2n1CCOc1ccccc1`, which cell lysis activity is on record?
Answer: 33.9% (inactive)

Question: Which cell lysis activity does the source give for `Fc1ccc(OCCn2c(=S)[nH]c3ccccc32)cc1` here?
Answer: -54.7% (inactive)

Question: For `Cc1ccc(C(C)C)c(OCCn2c(=S)[nH]c3c(F)cccc32)c1`, which cell lysis activity is on record?
Answer: -28.6% (inactive)

Question: With `CSc1nc2ccccc2n1CCOc1cc(C)ccc1C(C)C` as the compound, how does the cell lysis activity read?
Answer: 3.47% (inactive)
